Source: patent US12161650B2, “Pharmaceutical compositions comprising a ryanodine receptor modulator and uses thereof” (priority 2021, dated 2024)
Where “and” joins values, the source holds several entries; their conditions need not be identical. Equal entries are not always repeated. Where two headings read alike, the source gives them in different places.

Assay: Phase 1b study in RYR1-Related Myopathy patients, plasma pharmacokinetics
Format: in vivo, human (RYR1-Related Myopathy patients)
Conditions: for Ctrough_D13 / concentration at 13 day: Day 13 trough; for concentration at 13 day: read-out: Ctrough_D13
Protocol: A Phase 1b study is performed in RYR1-Related Myopathy (RYR1-RM) affected individuals. Compound I was administered in a gastro-resistant tablet according to Example 3 at daily doses. The formulation comprised 20 mg Compound I (based on the mass of 4-[(7-methoxy-2,3-dihydro-1,4-benzothiazepin-4(5H)yl)methyl]benzoic acid). The first three participants were dosed with 120 mg of Compound I (6×20 mg tablets) daily for approximately 28 days. The second group was dosed with 200 mg of Compound I (10×20 mg tablets daily for approximately 28 days. Bloods for PK assessments were at baseline (Day 0, 24h PK), at the study mid-point (day 14±2 days, trough PK), and at the final study visit (day 28, 24h PK). Pharmacokinetic analysis was performed on plasma samples. PK parameters are set forth below: [table]

[1] = 120 mg oral daily for 28 days, Day 28, n 3, Max
[2] = 120 mg oral daily for 28 days, Day 28, n 3, Median
[3] = 120 mg oral daily for 28 days, Day 28, n 3, Min
[4] = 120 mg oral daily for 28 days, Day 28, n 3, arithmetic mean
[5] = 120 mg oral daily for 28 days, Day 28, n 3, geometric mean
[6] = human, plasma, po, 120 mg, 120 mg oral daily for 28 days, Day 28, n 3, arithmetic mean
[7] = human, plasma, po, 120 mg, 120 mg oral daily for 28 days, Day 28, n 3, geometric mean
[8] = human, plasma, po, 200 mg, 200 mg oral daily for 28 days, three subjects
[9] = human, plasma, po, 200 mg, single oral 200 mg, three subjects
[10] = single oral 120 mg, Day 1, three subjects, Max
[11] = single oral 120 mg, Day 1, three subjects, Median
[12] = single oral 120 mg, Day 1, three subjects, Min
[13] = single oral 120 mg, Day 1, three subjects, arithmetic mean
[14] = single oral 120 mg, Day 1, three subjects, geometric mean

COc1ccc2c(c1)CN(Cc1ccc(C(=O)O)cc1)CCS2.O=C(O)/C=C/C(=O)O [Compound I, 4-[(7-methoxy-2,3-dihydro-1,4-benzothiazepin-4(5H)yl)methyl]benzoic acid hemifumarate]
AUC0-tau [1]: 287 µg·h/mL | Cmax, ss [1]: 21300 ng/mL | Cmin [1]: 7760 ng/mL | Tmax, ss [1]: 6.00 h | Tmin [1]: 24.00 h | Cmin [2]: 7020 ng/mL | Tmin [2]: 24.000 h | AUC0-tau [3]: 243 µg·h/mL | Cmax, ss [3]: 16900 ng/mL | Cmin [3]: 5800 ng/mL | Tmin [3]: 1.00 h | Cmin [4]: 6860 ng/mL | Tmin [4]: 16.333 h | Cmin [5]: 6811 ng/mL | Tmin [5]: 8.320 h | RA_AUC (120 mg oral daily, AUCtau Day 28/AUC0-24 Day 1, n 3, Max): 1.64 | RA_AUC (120 mg oral daily, AUCtau Day 28/AUC0-24 Day 1, n 3, Median): 1.618 | RA_AUC (120 mg oral daily, AUCtau Day 28/AUC0-24 Day 1, n 3, Min): 1,50 | RA_AUC (120 mg oral daily, AUCtau Day 28/AUC0-24 Day 1, n 3, arithmetic mean): 1.587 | RA_Cmax (120 mg oral daily, Cmax Day 28/Cmax Day 1, n 3, Max): 1.72 | RA_Cmax (120 mg oral daily, Cmax Day 28/Cmax Day 1, n 3, Median): 1.523 | RA_Cmax (120 mg oral daily, Cmax Day 28/Cmax Day 1, n 3, Min): 1.21 | RA_Cmax (120 mg oral daily, Cmax Day 28/Cmax Day 1, n 3, arithmetic mean): 1.485 | Ctrough_D13 (120 mg oral daily, n 3, Median): 8040 ng/mL | Ctrough_D13 (120 mg oral daily, n 3, Min): 6710 ng/mL | Ctrough_D13 (120 mg oral daily, n 3, geometric mean): 7970 ng/mL | Time of Cmin, individual values (120 mg oral daily, Day 28, 1 for 1 subject, 24 for two subjects): 1 h and 24 h | Tmax,ss, individual values (120 mg oral daily, Day 28, 4 for two participants, 6 for the third subject): 6 h | AUC (human, plasma, po, 120 mg, 120 mg oral daily for 28 days, Day 28, n 3, Median, read-out: AUC0-tau): 285 µg·h/mL | Cmax (human, plasma, po, 120 mg, 120 mg oral daily for 28 days, Day 28, n 3, Median, read-out: Cmax, ss): 19800 ng/mL | Tmax (human, plasma, po, 120 mg, 120 mg oral daily for 28 days, Day 28, n 3, Median, read-out: Tmax): 4 h | Cmax at 28 days [6]: 19300 ng/mL | Tmax at 28 days [6]: 4.67 h | AUC (human, plasma, po, 120 mg, 120 mg oral daily for 28 days, Day 28, n 3, arithmetic mean, read-out: AUC0-tau): 272 µg·h/mL | Cmax at 28 days [7]: 19200 ng/mL | Tmax at 28 days [7]: 4.58 h | AUC (human, plasma, po, 120 mg, 120 mg oral daily for 28 days, Day 28, n 3, geometric mean, read-out: AUC0-tau): ~271 µg·h/mL | Cmax (human, plasma, po, 120 mg, 120 mg oral daily for 28 days, Day 28, n 3, geometric mean, read-out: Cmax, ss): ~19200 ng/mL | concentration at 13 day (human, plasma, po, 120 mg, 120 mg oral daily, n 3, Max): 9400 ng/mL | concentration at 13 day (human, plasma, po, 120 mg, 120 mg oral daily, n 3, arithmetic mean): 8050 ng/mL | concentration at 13 day (human, plasma, po, 120 mg, 120 mg oral daily, n 3, geometric mean): 7970 ng/mL | Tmax (human, plasma, po, 120 mg, 120 mg oral daily, Day 28, 4 for two participants, 6 for the third subject, read-out: Tmax,ss, individual values): 4 h | AUC (human, plasma, po, 120 mg, 120 mg oral daily, Day 28, read-out: AUC0-tau, individual values): 243 to 287 µg·h/mL | Cmax (human, plasma, po, 120 mg, 120 mg oral daily, Day 28, read-out: Cmax,ss, individual values): 16900 to 21300 ng/mL | concentration at 28 day (human, plasma, po, 120 mg, 120 mg oral daily, Day 28, read-out: Cmin, individual values): 5800 to 7760 ng/mL | AUC(0-t) (human, plasma, po, 120 mg, single oral 120 mg, Day 1, three subjects, Median, read-out: AUC0-24): 175 µg·h/mL | AUC(0-inf) (human, plasma, po, 120 mg, single oral 120 mg, Day 1, three subjects, Median, read-out: AUC0-inf): 274 µg·h/mL | AUC(0-t) (human, plasma, po, 120 mg, single oral 120 mg, Day 1, three subjects, Median, read-out: AUC0-t): 175 µg·h/mL | Cmax (human, plasma, po, 120 mg, single oral 120 mg, Day 1, three subjects, Median, read-out: Cmax): 12400 ng/mL | Tmax (human, plasma, po, 120 mg, single oral 120 mg, Day 1, three subjects, Median, read-out: Tmax): 3 h | half-life (human, plasma, po, 120 mg, single oral 120 mg, Day 1, three subjects, Median, read-out: t½ (converted)): 14.4 h | AUC(0-t) (human, plasma, po, 120 mg, single oral 120 mg, Day 1, three subjects, arithmetic mean, read-out: AUC0-24): 172 µg·h/mL | AUC(0-inf) (human, plasma, po, 120 mg, single oral 120 mg, Day 1, three subjects, arithmetic mean, read-out: AUC0-inf): 259 µg·h/mL | AUC(0-t) (human, plasma, po, 120 mg, single oral 120 mg, Day 1, three subjects, arithmetic mean, read-out: AUC0-t): 172 µg·h/mL | Cmax (human, plasma, po, 120 mg, single oral 120 mg, Day 1, three subjects, arithmetic mean, read-out: Cmax): 13300 ng/mL | Tmax (human, plasma, po, 120 mg, single oral 120 mg, Day 1, three subjects, arithmetic mean, read-out: Tmax): 3 h | half-life (human, plasma, po, 120 mg, single oral 120 mg, Day 1, three subjects, arithmetic mean, read-out: t½ (converted)): 14.1 h | AUC(0-t) (human, plasma, po, 120 mg, single oral 120 mg, Day 1, three subjects, geometric mean, read-out: AUC0-24): 171 µg·h/mL | AUC(0-inf) (human, plasma, po, 120 mg, single oral 120 mg, Day 1, three subjects, geometric mean, read-out: AUC0-inf): 257 µg·h/mL | AUC(0-t) (human, plasma, po, 120 mg, single oral 120 mg, Day 1, three subjects, geometric mean, read-out: AUC0-t): 171 µg·h/mL | Cmax (human, plasma, po, 120 mg, single oral 120 mg, Day 1, three subjects, geometric mean, read-out: Cmax): ~13100 ng/mL | Tmax (human, plasma, po, 120 mg, single oral 120 mg, Day 1, three subjects, geometric mean, read-out: Tmax): 3 h | half-life (human, plasma, po, 120 mg, single oral 120 mg, Day 1, three subjects, geometric mean, read-out: t½ (converted)): 14.1 h | AUC(0-inf) (human, plasma, po, 120 mg, single oral 120 mg, Day 1, read-out: AUC0-inf, individual values): 212 to 290 µg·h/mL | AUC(0-t) (human, plasma, po, 120 mg, single oral 120 mg, Day 1, read-out: AUC0-t, individual values): 150 to 190 µg·h/mL | Cmax (human, plasma, po, 120 mg, single oral 120 mg, Day 1, read-out: Cmax, individual values): 11100 to 16300 ng/mL | Tmax (human, plasma, po, 120 mg, single oral 120 mg, Day 1, read-out: TMax, all participants): 3 h | half-life (human, plasma, po, 120 mg, single oral 120 mg, Day 1, read-out: half-life, individual values (converted)): 12.8 h | concentration at 0 h [8]: 7450 ng/mL | concentration at 0.5 h [8]: 8190 ng/mL | concentration at 1 h [8]: 7900 ng/mL | concentration at 2 hr (human, plasma, po, 200 mg, 200 mg oral daily for 28 days, three subjects, time 2 hr): 8830 ng/mL | concentration at 3 h [8]: 13500 ng/mL | concentration at 4 h [8]: 15100 ng/mL | concentration at 5 h [8]: 17800 ng/mL | concentration at 6 h [8]: 20000 ng/mL | concentration at 8 h [8]: 18300 ng/mL | concentration at 12 h [8]: 15400 ng/mL | concentration at 24 h [8]: 8550 ng/mL | Tmax (human, plasma, po, 200 mg, 200 mg oral daily for 28 days, read-out: Tmax, all participants): 5 to 6 h | concentration at 0 h [9]: 0 ng/mL | concentration at 0.5 h [9]: 0 ng/mL | concentration at 1 h [9]: 0 ng/mL | concentration at 2 h (human, plasma, po, 200 mg, single oral 200 mg, three subjects, time 2 hr): 176 ng/mL | concentration at 3 h [9]: 1110 ng/mL | concentration at 4 h [9]: 14300 ng/mL | concentration at 5 h [9]: 17600 ng/mL | concentration at 6 h [9]: 15900 ng/mL | concentration at 8 h [9]: 13400 ng/mL | concentration at 12 h [9]: 10000 ng/mL | concentration at 24 h [9]: 5520 ng/mL | Tmax (human, plasma, po, 200 mg, single oral 200 mg, read-out: TMax, all participants): 5 to 6 h | half-life, individual values (single oral 120 mg, Day 1): 15.28 h and 14.40 h | AUC0-24 [10]: 190 µg·h/mL | AUC % extrap [10]: 36.4% | AUC(0-inf) [10]: 290 µg·h/mL | AUC(0-t) [10]: 190 µg·h/mL | Cmax [10]: 16300 ng/mL | Kel [10]: 0.0544 h⁻¹ | Tlag [10]: 0.50 h | t½ [10]: 15.28 h | AUC % extrap [11]: 34.33% | Kel [11]: 0.04813 h⁻¹ | Tlag [11]: 0.000 h | AUC0-24 [12]: 150 µg·h/mL | AUC % extrap [12]: 29.4% | AUC(0-inf) [12]: 212 µg·h/mL | AUC(0-t) [12]: 150 µg·h/mL | Cmax [12]: 11100 ng/mL | Kel [12]: 0.0454 h⁻¹ | Tlag [12]: 0.00 h | t½ [12]: 12.75 h | AUC % extrap [13]: 33.36% | Kel [13]: 0.04929 h⁻¹ | Tlag [13]: 0.167 h | t½ [13]: 14.142 h | AUC % extrap [14]: 33.23% | AUC(0-inf) [14]: 256.6 µg·h/mL | AUC(0-t) [14]: 170.8 µg·h/mL | Kel [14]: 0.04915 h⁻¹
